Source: patent US12723063B2, “GIPR-agonist compounds” (Eli Lilly and Company, priority 2019, dated 2026)

Columns and labels:
[1] = Pharmacokinetics in male cynomolgus monkeys, single subcutaneous administration; type: in vivo, cynomolgus monkey; settings: 50 nmol/kg single SC, mean n = 2; for CL/F / Tmax / half-life: cynomolgus monkey, plasma
Description: The pharmacokinetics of select Examples are evaluated following a single subcutaneous administration of 50 nmol/kg to male cynomolgus monkeys. Blood samples are collected over 504 hours and resulting individual plasma concentrations are used to calculate pharmacokinetic parameters. Peptide plasma (K3 EDTA) concentrations are determined using a qualified LC/MS method that measured the intact mass of the compound. Each peptide and an analog as an internal standard are extracted from 100% cynomolgus monkey plasma using a protein precipitation method. Instruments are combined for LC/MS detection.

[2] = system: CD4+ T cells (CD8+ T cell-depleted PBMCs); assay: CD4+ T cell proliferation assay (immunogenicity assessment); type: cell-based, human; settings: 0.33 μM, 7 days, 10 healthy donors; positive response CDI>2.5
Description: Protein therapeutics that induce less than 30% positive response in the CD4+ T cell proliferation assay are associated with a low risk of immunogenicity. Briefly, to assess the propensity for a clinical immunogenic response to the compounds of Examples 1, 2, 3, 5, and 6, CD8+ T cell-depleted peripheral blood mononuclear cells (PBMCs) are prepared and labeled with carboxyfluorescein diacetate succinimidyl ester (CFSE; Invitrogen) from a cohort of 10 healthy donors with diverse human leukocyte antigen (HLA) class II haplotypes. Each donor is tested in triplicate with 2.0 mL media control, keyhole limpet hemocyanin (KLH: 0.33 μM), and the compounds of Examples 1, 2, 3, 5, and 6 (0.33 μM). Cultures are incubated for 7 days at 37° C. with 5% CO2. On day 7, samples are analyzed by flow cytometry using a BD LSR II Fortessa (Becton Dickinson; Franklin Lakes, NJ), equipped with a high throughput sampler (HTS). Data is analyzed using FlowJo® Software (FlowJo, LLC/TreeStar; Ashland, OR).
• Cell Division Index (“CDI”): proportion of divided CD4+ T cells to the total number of CD4+ T cells in stimulated versus unstimulated samples.

human GcgR = molecular target: T1, human GcgR (Homo sapiens, UniProt P47871); assay: [125I]-Glucagon binding, SPA with WGA beads, 0.1% bacitracin; settings: geometric mean, read-out: hGcgR Ki
T1 construct: expressed in transfected cells; crude membranes
Outline: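 SPA competition binding with WGA beads on crude membranes from HEK293 cells stably expressing hGcgR. Buffer: 25 mM HEPES pH 7.4, 2.5 mM CaCl2, 1 mM MgCl2, 0.1% bacitracin, 0.003% Tween-20; 10-point 3-fold dilutions, NSB with 1 μM Gcg.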

[3] = Pharmacokinetics in male Sprague Dawley rats, single subcutaneous administration; type: in vivo, Sprague Dawley rat; settings: 100 nmol/kg single SC, mean n = 3 (example 3 n = 1); for CL/F / Tmax / half-life: rat, plasma
Description: The pharmacokinetics of select Examples are evaluated following a single subcutaneous (SC) administration of 100 nmol/kg to male Sprague Dawley rats. Blood samples are collected over 168 hours following SC administration. Pharmacokinetic parameters are calculated using individual plasma concentrations. A qualified LC/MS method that measures the intact mass of the Example is used to determine plasma (K3 EDTA) concentrations. Each peptide and an analog as an internal standard are extracted from 100% rat plasma using a protein precipitation method. Instruments are combined for LC/MS detection. Mean pharmacokinetic parameters for the Examples are shown in […]

T1 sequence (P47871 26-477): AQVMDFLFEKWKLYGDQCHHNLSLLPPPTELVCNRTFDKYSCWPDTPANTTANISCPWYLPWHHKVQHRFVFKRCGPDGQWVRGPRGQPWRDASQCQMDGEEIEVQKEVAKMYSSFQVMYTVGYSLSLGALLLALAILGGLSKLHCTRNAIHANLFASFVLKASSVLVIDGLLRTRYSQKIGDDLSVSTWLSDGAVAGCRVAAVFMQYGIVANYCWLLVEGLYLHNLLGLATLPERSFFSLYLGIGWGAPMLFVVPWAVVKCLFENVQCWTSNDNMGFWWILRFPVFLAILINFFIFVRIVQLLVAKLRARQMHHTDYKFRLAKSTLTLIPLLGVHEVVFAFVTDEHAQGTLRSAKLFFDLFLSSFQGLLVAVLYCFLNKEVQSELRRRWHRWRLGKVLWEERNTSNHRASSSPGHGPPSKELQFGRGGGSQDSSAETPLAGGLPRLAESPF

| SMILES | AUCInf/Dose [1] [hr*kg*nmol/L/nmol] | Cmax/Dose [1] [kg*nmol/L/nmol] | CL/F [1] [mL/h/kg] | Tmax [1] [h] | half-life [1] [h] | % Donor Response (n = 10) [2] [%] | Ki (human GcgR) [nM] | AUCInf/Dose [3] [hr*kg*nmol/L/nmol] | Cmax/Dose [3] [kg*nmol/L/nmol] | CL/F [3] [mL/h/kg] | Tmax [3] [h] | half-life [3] [h] |
| --- | --- | --- | --- | --- | --- | --- | --- | --- | --- | --- | --- | --- |
| CC[C@H](C)[C@H](NC(=O)[C@H](CCCCN)NC(=O)[C@H](CC(=O)O)NC(=O)[C@H](CC(C)C)NC(=O)[C@](C)(CC(C)C)NC(=O)[C@@H](NC(=O)[C@H](CO)NC(=O)[C@H](Cc1ccc(O)cc1)NC(=O)[C@H](CC(=O)O)NC(=O)[C@H](CO)NC(=O)[C@@H](NC(=O)[C@H](Cc1ccccc1)NC(=O)[C@@H](NC(=O)CNC(=O)[C@H](CCC(=O)O)NC(=O)C(C)(C)NC(=O)[C@@H](N)Cc1ccc(O)cc1)[C@@H](C)O)[C@@H](C)CC)[C@@H](C)CC)C(=O)N[C@@H](Cc1c[nH]cn1)C(=O)N[C@@H](CCC(N)=O)C(=O)NC(C)(C)C(=O)N[C@@H](CC(=O)O)C(=O)N[C@@H](Cc1ccccc1)C(=O)N[C@H](C(=O)N[C@@H](CCC(=O)O)C(=O)N[C@@H](Cc1ccc(O)cc1)C(=O)N[C@@H](CCCCNC(=O)COCCOCCNC(=O)COCCOCCNC(=O)CC[C@H](NC(=O)CCCCCCCCCCCCCCCCCCC(=O)O)C(=O)O)C(=O)N[C@@H](CC(C)C)C(=O)N[C@@H](CCC(=O)O)C(=O)NCC(=O)NCC(=O)N1CCC[C@H]1C(=O)N[C@@H](CO)C(=O)N[C@@H](CO)C(=O)NCC(=O)N[C@@H](C)C(=O)N1CCC[C@H]1C(=O)N1CCC[C@H]1C(=O)N1CCC[C@H]1C(=O)N[C@@H](CO)C(N)=O)C(C)C [Example 5] | 2262 | 12.0 | 0.44 | 120 | 128 | 0 | 619 | 239 | 4.61 | 4.2 | 24 | 27.1 |
| CC[C@H](C)[C@H](NC(=O)[C@H](CO)NC(=O)[C@H](Cc1ccc(O)cc1)NC(=O)[C@H](CC(=O)O)NC(=O)[C@H](CO)NC(=O)[C@@H](NC(=O)[C@H](Cc1ccccc1)NC(=O)[C@@H](NC(=O)CNC(=O)[C@H](CCC(=O)O)NC(=O)[C@@H](C)NC(=O)[C@@H](N)Cc1ccc(O)cc1)[C@@H](C)O)[C@@H](C)CC)C(=O)N[C@@H](CC(C)C)C(=O)N[C@@H](CC(C)C)C(=O)N[C@@H](CC(=O)O)C(=O)N[C@@H](CCCCN)C(=O)N[C@@H](CCCCNC(=O)COCCOCCNC(=O)COCCOCCNC(=O)CC[C@H](NC(=O)CCCCCCCCCCCCCCCCCCC(=O)O)C(=O)O)C(=O)N[C@@H](C)C(=O)N[C@@H](CCC(N)=O)C(=O)NC(C)(C)C(=O)N[C@@H](CC(=O)O)C(=O)N[C@@H](Cc1ccccc1)C(=O)N[C@H](C(=O)N[C@@H](CC(N)=O)C(=O)N[C@@H](Cc1c[nH]c2ccccc12)C(=O)N[C@@H](CC(C)C)C(=O)N[C@@H](CC(C)C)C(=O)N[C@@H](C)C(=O)N[C@@H](CCC(N)=O)C(=O)NCC(=O)N1CCC[C@H]1C(=O)N[C@@H](CO)C(=O)N[C@@H](CO)C(=O)NCC(=O)N[C@@H](C)C(=O)N1CCC[C@H]1C(=O)N1CCC[C@H]1C(=O)N1CCC[C@H]1C(=O)N[C@@H](CO)C(N)=O)C(C)C [Example 1] | 786 | 7.20 | 1.27 | 24 | 71.1 | 0 | 228 | 280 | 3.62 | 3.57 | 24 | 37.4 |
| CC[C@H](C)[C@H](NC(=O)[C@H](Cc1ccccc1)NC(=O)[C@@H](NC(=O)CNC(=O)[C@H](CCC(=O)O)NC(=O)C(C)(C)NC(=O)[C@@H](N)Cc1ccc(O)cc1)[C@@H](C)O)C(=O)N[C@@H](CO)C(=O)N[C@@H](CC(=O)O)C(=O)N[C@@H](Cc1ccc(O)cc1)C(=O)N[C@@H](CO)C(=O)N[C@H](C(=O)N[C@@](C)(CC(C)C)C(=O)N[C@@H](CC(C)C)C(=O)N[C@@H](CC(=O)O)C(=O)N[C@@H](CCCN)C(=O)N[C@@H](CCCCNC(=O)COCCOCCNC(=O)COCCOCCNC(=O)CC[C@H](NC(=O)CCCCCCCCCCCCCCCCCCC(=O)O)C(=O)O)C(=O)N[C@@H](Cc1c[nH]cn1)C(=O)N[C@@H](CCC(N)=O)C(=O)NC(C)(C)C(=O)N[C@@H](CC(=O)O)C(=O)N[C@@H](Cc1ccccc1)C(=O)N[C@H](C(=O)N[C@@H](CCC(=O)O)C(=O)N[C@@H](Cc1ccncc1)C(=O)N[C@@H](CC(C)C)C(=O)N[C@@H](CC(C)C)C(=O)N[C@@H](CCC(=O)O)C(=O)N[C@@H](C)C(=O)NCC(=O)N1CCC[C@H]1C(=O)N[C@@H](CO)C(=O)N[C@@H](CO)C(=O)NCC(=O)N[C@@H](C)C(=O)N1CCC[C@H]1C(=O)N1CCC[C@H]1C(=O)N1CCC[C@H]1C(=O)N[C@@H](CO)C(N)=O)C(C)C)[C@@H](C)CC [Example 4] | 1387 | 8.71 | 0.72 | 6 | 124 |  | 431 |  |  |  |  |  |
| CC[C@H](C)[C@H](NC(=O)[C@H](CCCN)NC(=O)[C@H](CC(=O)O)NC(=O)[C@H](CC(C)C)NC(=O)[C@](C)(CC(C)C)NC(=O)[C@@H](NC(=O)[C@H](CO)NC(=O)[C@H](Cc1ccc(O)cc1)NC(=O)[C@H](CC(=O)O)NC(=O)[C@H](CO)NC(=O)[C@@H](NC(=O)[C@H](Cc1ccccc1)NC(=O)[C@@H](NC(=O)CNC(=O)[C@H](CCC(=O)O)NC(=O)C(C)(C)NC(=O)[C@@H](N)Cc1ccc(O)cc1)[C@@H](C)O)[C@@H](C)CC)[C@@H](C)CC)C(=O)N[C@@H](Cc1c[nH]cn1)C(=O)N[C@@H](CCC(N)=O)C(=O)NC(C)(C)C(=O)N[C@@H](CC(=O)O)C(=O)N[C@@H](Cc1ccccc1)C(=O)N[C@H](C(=O)N[C@@H](CCC(=O)O)C(=O)N[C@@H](Cc1ccc(O)cc1)C(=O)N[C@@H](CCCCNC(=O)COCCOCCNC(=O)COCCOCCNC(=O)CC[C@H](NC(=O)CCCCCCCCCCCCCCCCCCC(=O)O)C(=O)O)C(=O)N[C@@H](CC(C)C)C(=O)N[C@@H](CCC(=O)O)C(=O)NCC(=O)NCC(=O)N1CCC[C@H]1C(=O)N[C@@H](CO)C(=O)N[C@@H](CO)C(=O)NCC(=O)N[C@@H](C)C(=O)N1CCC[C@H]1C(=O)N1CCC[C@H]1C(=O)N1CCC[C@H]1C(=O)N[C@@H](CO)C(N)=O)C(C)C [Example 6] | 1382 | 7.83 | 0.77 | 6 | 129 | 0 | 453 | 271 | 4.07 | 3.69 |  | 34.8 |
| CC[C@H](C)[C@H](NC(=O)[C@H](CCCN)NC(=O)[C@H](CC(=O)O)NC(=O)[C@H](CC(C)C)NC(=O)[C@](C)(CC(C)C)NC(=O)[C@@H](NC(=O)[C@H](CO)NC(=O)[C@H](Cc1ccc(O)cc1)NC(=O)[C@H](CC(=O)O)NC(=O)[C@H](CO)NC(=O)[C@@H](NC(=O)[C@H](Cc1ccccc1)NC(=O)[C@@H](NC(=O)CNC(=O)[C@H](CCC(=O)O)NC(=O)C(C)(C)NC(=O)[C@@H](N)Cc1ccc(O)cc1)[C@@H](C)O)[C@@H](C)CC)[C@@H](C)CC)C(=O)N[C@@H](Cc1c[nH]cn1)C(=O)N[C@@H](CCC(N)=O)C(=O)NC(C)(C)C(=O)N[C@@H](CCC(=O)O)C(=O)N[C@@H](Cc1ccccc1)C(=O)N[C@H](C(=O)N[C@H](CCC(=O)O)C(=O)N[C@@H](Cc1ccc(O)cc1)C(=O)N[C@@H](CCCCNC(=O)COCCOCCNC(=O)COCCOCCNC(=O)CC[C@H](NC(=O)CCCCCCCCCCCCCCCCC(=O)O)C(=O)O)C(=O)N[C@@H](CC(C)C)C(=O)N[C@@H](CCC(=O)O)C(=O)NCC(=O)NCC(=O)N1CCC[C@H]1C(=O)N[C@@H](CO)C(=O)N[C@@H](CO)C(=O)NCC(=O)N[C@@H](C)C(=O)N1CCC[C@H]1C(=O)N1CCC[C@H]1C(=O)N1CCC[C@H]1C(=O)N[C@@H](CO)C(N)=O)C(C)C [Example 7] | 1603 | 10.1 | 0.63 | 9 | 109 |  | > 961 |  |  |  |  |  |
